Values joined by “and” are separate entries in the source; they are usually repeats but may differ in a detail not shown here. Equal entries are not always repeated. Inconclusive results and toxic doses are left out.

Experimental findings from PubChem BioAssay AID274 (DTP/NCI, 2004) are described below.

For this test, the system named is BDF1 mice, Lewis lung carcinoma iv, survival T/C. Description: NCI In Vivo Anticancer Drug Screen. Data for tumor model Lewis Lung Carcinoma (intravenous) in B6D2F1 (BDF1) mice. The note with it: endpoint: median survival time, higher = longer survival. How it is done:
The antitumor activity of compounds was measured in mice bearing transplantable tumors. Survival or tumor size were measured and the results are expressed as the measurement made in the treated group (T) divided by the measurement made in the vehicle treated control group (C). The tumor model used in this assay is Lewis Lung Carcinoma (intravenous) in B6D2F1 (BDF1) mice

[1] abbreviates: dose: 50.0 mg/kg/injection, schedule: Q01DX009 (ip), vehicle: saline with Tween-80.
Setting [2] is: dose: 100.0 mg/kg/injection, schedule: Q01DX009 (ip), vehicle: saline with Tween-80.
The mark [3] stands for this setting: dose: 25.0 mg/kg/injection, schedule: Q01DX009 (ip), vehicle: saline with Tween-80.
[4] abbreviates: dose: 12.5 mg/kg/injection, schedule: Q01DX009 (ip), vehicle: saline with Tween-80.
[5] abbreviates: dose: 200.0 mg/kg/injection, schedule: Q01DX009 (ip), vehicle: saline with Tween-80.
[6] abbreviates: dose: 400.0 mg/kg/injection, schedule: Q01DX009 (ip), vehicle: saline with Tween-80.
Where [7] appears, read: dose: 3.13 mg/kg/injection, schedule: Q01DX009 (ip), vehicle: saline with Tween-80.
Where [8] appears, read: dose: 6.25 mg/kg/injection, schedule: Q01DX009 (ip), vehicle: suspension in saline.

Consider `C=C1C(=O)OCC2C(C(=O)O)=CC3C(C)C(C)=CC123` (stereo unspecified), for which the T/C reads like this: (dose: 2.5 mg/kg/injection, schedule: Q01DX009 (ip), vehicle: Klucel (hydroxypropylcellulose) (HPC)) 87 % of control; (dose: 5.0 mg/kg/injection, schedule: Q01DX009 (ip), vehicle: Klucel (hydroxypropylcellulose) (HPC)) 92 % of control; (dose: 10.0 mg/kg/injection, schedule: Q01DX009 (ip), vehicle: Klucel (hydroxypropylcellulose) (HPC)) 95 % of control; (dose: 40.0 mg/kg/injection, schedule: Q01DX009 (ip), vehicle: Klucel (hydroxypropylcellulose) (HPC)) 91 % of control; (dose: 80.0 mg/kg/injection, schedule: Q01DX009 (ip), vehicle: Klucel (hydroxypropylcellulose) (HPC)) 92 % of control.

For `C[C@@H]1CN(C(=O)CCOS(C)(=O)=O)[C@@H](C)CN1C(=O)CCOS(C)(=O)=O`, the T/C by setting is: under setting [1], 93 % of control; under setting [2], 101 % of control.

With `CCN1CSC(=S)N(CC)C1`, the T/C runs as follows: under setting [3], 103 % of control; under setting [1], 101 % of control; under setting [2], 99 % of control.

In the case of `C[C@]12CC[C@@H]3c4ccc(OC(=O)Cc5ccc(N(CCCl)CCCl)cc5)cc4CC[C@H]3[C@@H]1CC[C@@H]2OC(=O)Cc1ccc(N(CCCl)CCCl)cc1`, the T/C under setting [4] is 97 % of control; the T/C under setting [3] was 104 % of control; the T/C under setting [1] is 99 % of control; the T/C under setting [2] is 91 % of control; the T/C under setting [5] was 98 % of control; the T/C under setting [6] is 100 % of control.

Turning to `O=C(NCCCCCCCCCCNC(=O)N1CC1)N1CC1`, the T/C runs as follows: (dose: 0.75 mg/kg/injection, schedule: Q01DX009 (ip), vehicle: saline) 117 % of control; (dose: 1.5 mg/kg/injection, schedule: Q01DX009 (ip), vehicle: saline) 110 % of control; (dose: 3.0 mg/kg/injection, schedule: Q01DX009 (ip), vehicle: saline) 122 % of control; (dose: 6.0 mg/kg/injection, schedule: Q01DX009 (ip), vehicle: saline) 117 % of control.

Regarding `O=NN(CCCl)C(=O)NC1CCC(=O)NC1=O` (stereo unspecified), the T/C by setting is: (dose: 0.5 mg/kg/injection, schedule: Q01DX009 (ip), vehicle: saline with Tween-80) 115 % of control; (dose: 1.0 mg/kg/injection, schedule: Q01DX009 (ip), vehicle: saline with Tween-80) 103 % of control; (dose: 2.0 mg/kg/injection, schedule: Q01DX009 (ip), vehicle: saline with Tween-80) 185 % of control; (dose: 4.0 mg/kg/injection, schedule: Q01DX009 (ip), vehicle: saline with Tween-80) 247 % of control; (dose: 8.0 mg/kg/injection, schedule: Q01DX009 (ip), vehicle: saline with Tween-80) 104 % of control.

As to `N#CCCSC(=S)C1CCCC1=N` (stereo unspecified), the T/C is 105 % of control under setting [4]; 101 % of control under setting [3]; 106 % of control under setting [1]; 93 % of control under setting [2]; 98 % of control under setting [5]; 106 % of control under setting [6].

As for `CCCCCCCCCCCCCCCCS(=O)CC(O)COC(=O)c1ccc(C(=O)OCC(O)CS(=O)CCCCCCCCCCCCCCCC)cc1` (stereo unspecified), the T/C is 88 % of control (dose: 12.5 mg/kg/injection, schedule: Q01DX009 (ip), vehicle: saline + Tween-80 + alcohol); 95 % of control (dose: 25.0 mg/kg/injection, schedule: Q01DX009 (ip), vehicle: saline + alcohol); 95 % of control (dose: 50.0 mg/kg/injection, schedule: Q01DX009 (ip), vehicle: saline + Tween-80 + alcohol); 92 % of control (dose: 100.0 mg/kg/injection, schedule: Q01DX009 (ip), vehicle: saline + Tween-80 + alcohol); 101 % of control (dose: 100.0 mg/kg/injection, schedule: Q01DX009 (ip), vehicle: saline + alcohol); 99 % of control (dose: 200.0 mg/kg/injection, schedule: Q01DX009 (ip), vehicle: saline + Tween-80 + alcohol). For the same compound, the T/C (dose: 200.0 mg/kg/injection, schedule: Q01DX009 (ip), vehicle: saline + alcohol) was 218 % of control.

With `Nc1ncnc2c1ncn2C1C=C(CO)C(O)C1O` (stereo unspecified), the T/C runs as follows: (dose: 0.5 mg/kg/injection, schedule: Q01DX009 (ip), vehicle: saline) 102 % of control; (dose: 1.0 mg/kg/injection, schedule: Q01DX009 (ip), vehicle: saline) 98 % of control; (dose: 2.0 mg/kg/injection, schedule: Q01DX009 (ip), vehicle: saline) 88 % of control; (dose: 4.0 mg/kg/injection, schedule: Q01DX009 (ip), vehicle: saline) 95 % of control.

`Nc1ccc(Cl)cc1N`: the T/C under setting [4] is 92 % of control; the T/C under setting [3] was 93 % of control; the T/C under setting [1] was 99 % of control; the T/C under setting [2] was 104 % of control; the T/C under setting [5] is 102 % of control.

`CCC1CN2C(=N1)c1ccccc1-c1cc(Cl)ccc12` (stereo unspecified): the T/C by setting is: under setting [7], 104 % of control and 118 % of control; (dose: 6.25 mg/kg/injection, schedule: Q01DX009 (ip), vehicle: saline with Tween-80) 109 % of control and 90 % of control; under setting [4], 100 % of control; under setting [3], 94 % of control and 107 % of control; under setting [1], 102 % of control and 122 % of control.

In the case of `O=[N+]([O-])c1cc([N+](=O)[O-])c(Nn2c3ccccc3c3ccccc32)c([N+](=O)[O-])c1`, the T/C by setting is: under setting [4], 114 % of control; under setting [3], 105 % of control; under setting [1], 91 % of control.

As to `CC(CN1CC(=O)NC(=O)C1)N1CC(=O)NC(=O)C1` (stereo unspecified), the T/C runs as follows: (dose: 64.8 mg/kg/injection, schedule: Q04DX003 (ip), vehicle: Klucel (hydroxypropylcellulose) (HPC)) 110 % of control and 112 % of control and 119 % of control; (dose: 108.0 mg/kg/injection, schedule: Q04DX003 (ip), vehicle: Klucel (hydroxypropylcellulose) (HPC)) 111 % of control and 114 % of control; (dose: 300.0 mg/kg/injection, schedule: Q04DX003 (ip), vehicle: Klucel (hydroxypropylcellulose) (HPC)) 154 % of control and 178 % of control.

`CCOC(=O)c1c[nH]c2oc(/C=N/N3CC(CN4CCOCC4)OC3=O)cc2c1=O` (stereo unspecified): the T/C was 108 % of control under setting [8]; 105 % of control (dose: 12.5 mg/kg/injection, schedule: Q01DX009 (ip), vehicle: suspension in saline); 104 % of control (dose: 25.0 mg/kg/injection, schedule: Q01DX009 (ip), vehicle: suspension in saline); 114 % of control (dose: 50.0 mg/kg/injection, schedule: Q01DX009 (ip), vehicle: suspension in saline); 106 % of control (dose: 100.0 mg/kg/injection, schedule: Q01DX009 (ip), vehicle: suspension in saline).

For the compound `CCOC(=O)C1=C(C#N)C2(CCC(OCc3ccccc3)CC2)C(=O)O1` (stereo unspecified), the T/C is 94 % of control (dose: 12.5 mg/kg/injection, schedule: Q01DX009 (ip), vehicle: saline); 95 % of control (dose: 25.0 mg/kg/injection, schedule: Q01DX009 (ip), vehicle: saline); 98 % of control (dose: 50.0 mg/kg/injection, schedule: Q01DX009 (ip), vehicle: saline); 106 % of control (dose: 100.0 mg/kg/injection, schedule: Q01DX009 (ip), vehicle: saline); 114 % of control (dose: 200.0 mg/kg/injection, schedule: Q01DX009 (ip), vehicle: saline); 89 % of control (dose: 400.0 mg/kg/injection, schedule: Q01DX009 (ip), vehicle: saline).

As to `O=C(N/N=C\c1cc(Br)cc(Br)c1O)N/N=C/c1cc(Br)cc(Br)c1O`, the T/C runs as follows: under setting [4], 91 % of control; under setting [3], 96 % of control; under setting [1], 98 % of control; under setting [2], 96 % of control; under setting [5], 98 % of control; under setting [6], 96 % of control.

As for `CCC1(O)CC2CN(CCc3c([nH]c4ccccc34)C(C(=O)OC)(c3cc4c(cc3OC)N(C)C3C(O)(C(=O)NCCSSCCNC(=O)C5(O)C(O)C6(CC)C=CCN7CCC8(c9cc(C%10(C(=O)OC)CC%11CN(CCc%12c%10[nH]c%10ccccc%12%10)CC(O)(CC)C%11)c(OC)cc9N(C)C58)C76)C(O)C5(CC)C=CCN6CCC43C65)C2)C1` (stereo unspecified), the T/C runs as follows: (dose: 0.39 mg/kg/injection, schedule: Q01DX009 (ip), vehicle: saline) 93 % of control; (dose: 0.65 mg/kg/injection, schedule: Q01DX009 (ip), vehicle: saline) 93 % of control.

As to `Cn1cnc([N+](=O)[O-])c1Sc1nc(N)nc2c1ncn2C1OC(CO)C(O)C1O` (stereo unspecified), the T/C by setting is: (dose: 0.78 mg/kg/injection, schedule: Q01DX009 (ip), vehicle: saline with Tween-80) 97 % of control; (dose: 1.56 mg/kg/injection, schedule: Q01DX009 (ip), vehicle: saline with Tween-80) 116 % of control; under setting [7], 105 % of control; under setting [8], 107 % of control.
